By Ki is commonly meant the dissociation constant of the complex between target and ligand, obtained from inhibition or displacement.

Drawing on US12559529B2, “NPY2 receptor agonists” (Boehringer Ingelheim International GmbH, priority 2019, dated 2026), this text covers Ki for six compounds.

Structures are written as SMILES.

The target in this test is T1, Human Neuropeptide Y2 Receptor (Homo sapiens, UniProt P49146).
T1 construct: purchased CHEMICON HTS066M
T1 sequence (P49146 1-381): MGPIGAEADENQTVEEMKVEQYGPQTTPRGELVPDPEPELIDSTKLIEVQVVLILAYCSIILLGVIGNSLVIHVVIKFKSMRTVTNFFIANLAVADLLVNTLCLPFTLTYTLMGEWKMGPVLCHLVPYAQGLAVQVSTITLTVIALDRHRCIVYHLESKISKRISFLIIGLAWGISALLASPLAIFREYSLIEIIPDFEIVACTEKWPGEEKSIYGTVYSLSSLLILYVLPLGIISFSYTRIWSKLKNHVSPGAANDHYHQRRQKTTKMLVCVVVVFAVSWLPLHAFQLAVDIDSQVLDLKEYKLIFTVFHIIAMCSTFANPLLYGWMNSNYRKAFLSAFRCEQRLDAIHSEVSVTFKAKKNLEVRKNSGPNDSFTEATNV
Briefly: Radioligand binding competition assay (RLB). The note with it: Table 3; human 125I-PYY (1-36) 0.02 nM, Y2 receptor membranes; read-out: Ki. The method, boiled down: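 Peptide dilutions made in pH 7.4 HEPES assay buffer with 0.2% ovalbumin; human Y2 receptor membranes added at 0.5 μg protein/well; plates shaken 2 h at room temperature; reaction stopped by vacuum filtration onto PEI-treated GF/C filters with ice-cold high-salt washes; radioactivity counted by scintillation.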
`CC(C)CC(=O)N[C@@H](C)C(=O)N1CCC[C@H]1C(=O)N[C@@H](CCC(=O)O)C(=O)N[C@@H](CCCCNC(=O)COCCOCCNC(=O)COCCOCCNC(=O)CC[C@H](NC(=O)CCCCCCCCCCCCCCCCC(=O)O)C(=O)O)C(=O)N1CCC[C@H]1C(=O)N[C@@H](CCC(=O)O)C(=O)N[C@@H](CCC(=O)O)C(=O)N[C@@H](CC(=O)O)C(=O)N[C@@H](C)C(=O)N[C@@H](CCC(=O)O)C(=O)N1CCC[C@H]1C(=O)N[C@@H](CCC(=O)O)C(=O)N[C@@H](CCC(=O)O)C(=O)N[C@@H](CC(C)C)C(=O)N[C@@H](CCC(N)=O)C(=O)N[C@@H](CCCNC(=N)N)C(=O)N[C@@H](Cc1ccc(O)cc1)C(=O)N[C@@H](Cc1ccc(O)cc1)C(=O)N[C@H](C(=O)N[C@@H](CCC(=O)O)C(=O)N[C@@H](CC(C)C)C(=O)N[C@@H](CCCNC(=N)N)C(=O)N[C@@H](Cc1c[nH]cn1)C(=O)N[C@@H](Cc1ccc(O)cc1)C(=O)N[C@@H](Cc1ccc(O)cc1)C(=O)N[C@@H](CC(N)=O)C(=O)N[C@@H](Cc1c[nH]c2ccccc12)C(=O)N[C@@H](CC(C)C)C(=O)N[C@H](C(=O)N[C@@H](CCCNC(=N)N)C(=O)N[C@@H](CCC(N)=O)C(=O)N[C@@H](CCCNC(=N)N)C(=O)N[C@@H](Cc1ccc(O)cc1)C(N)=O)[C@@H](C)O)C(C)C` [Compound 111, N{alpha-4}-(3-methylbutanoyl)-N{epsilon-7}-[2-(2-{2-[2-(2-{2-[(4S)-4-carboxy-4-(17-carboxyheptadecanamido)butanamido]ethoxy}ethoxy)acetamido]ethoxy}ethoxy)acetamido]-[4A,7K,9E,13E,18Q,22V,23E,28Y,30W,31L]hPYY (4-36)]: the Ki stood at 5.43 nM. The result for `CC(C)CC(=O)N[C@@H](C)C(=O)N1CCC[C@H]1C(=O)N[C@@H](CCC(=O)O)C(=O)N[C@@H](CCCCNC(=O)COCCOCCNC(=O)COCCOCCNC(=O)CC[C@H](NC(=O)CCCCCCCCCCCCCCCCC(=O)O)C(=O)O)C(=O)N1CCC[C@H]1C(=O)N[C@@H](CCC(=O)O)C(=O)N[C@@H](CCC(=O)O)C(=O)N[C@@H](CCC(=O)O)C(=O)N[C@@H](C)C(=O)N[C@@H](CO)C(=O)N1CCC[C@H]1C(=O)N[C@@H](CCC(=O)O)C(=O)N[C@@H](CCC(=O)O)C(=O)N[C@@H](CC(C)C)C(=O)N[C@@H](CCC(N)=O)C(=O)N[C@@H](CCCNC(=N)N)C(=O)N[C@@H](Cc1ccc(O)cc1)C(=O)N[C@@H](Cc1ccc(O)cc1)C(=O)N[C@H](C(=O)N[C@H](C(=O)N[C@@H](CC(C)C)C(=O)N[C@@H](CCCNC(=N)N)C(=O)N[C@@H](Cc1c[nH]cn1)C(=O)N[C@@H](Cc1ccc(O)cc1)C(=O)N[C@@H](Cc1ccc(O)cc1)C(=O)N[C@@H](CC(N)=O)C(=O)N[C@@H](Cc1c[nH]c2ccccc12)C(=O)N[C@@H](CC(C)C)C(=O)N[C@H](C(=O)N[C@@H](CCCNC(=N)N)C(=O)N[C@@H](CCC(N)=O)C(=O)N[C@@H](CCCNC(=N)N)C(=O)N[C@@H](Cc1ccc(O)cc1)C(N)=O)[C@@H](C)O)[C@@H](C)O)C(C)C` [Compound 119, N{alpha-4}-(3-methylbutanoyl)-N{epsilon-7}-[2-(2-{2-[2-(2-{2-[(4S)-4-carboxy-4-(17-carboxyheptadecanamido)butanamido]ethoxy}ethoxy)acetamido]ethoxy}ethoxy)acetamido]-[4A,7K,9E,11E,18Q,22V,23T,28Y,30W,31L]hPYY (4-36)] reads 3.32 nM; that for `CC(C)CC(=O)N[C@@H](C)C(=O)N1CCC[C@H]1C(=O)N[C@@H](C)C(=O)N[C@@H](CCCCNC(=O)COCCOCCNC(=O)COCCOCCNC(=O)CC[C@H](NC(=O)CCCCCCCCCCCCCCCCC(=O)O)C(=O)O)C(=O)N1CCC[C@H]1C(=O)N[C@@H](CCC(=O)O)C(=O)N[C@@H](C)C(=O)N[C@@H](CC(=O)O)C(=O)N[C@@H](C)C(=O)N[C@@H](CO)C(=O)N1CCC[C@H]1C(=O)N[C@@H](CCC(=O)O)C(=O)N[C@@H](CCC(=O)O)C(=O)N[C@@H](CC(C)C)C(=O)N[C@@H](CCC(N)=O)C(=O)N[C@@H](CCCNC(=N)N)C(=O)N[C@@H](Cc1ccc(O)cc1)C(=O)N[C@@H](Cc1ccc(O)cc1)C(=O)N[C@H](C(=O)N[C@@H](CO)C(=O)N[C@@H](CC(C)C)C(=O)N[C@@H](CCCNC(=N)N)C(=O)N[C@@H](Cc1c[nH]cn1)C(=O)N[C@@H](Cc1ccc(O)cc1)C(=O)N[C@@H](Cc1ccc(O)cc1)C(=O)N[C@@H](CC(N)=O)C(=O)N[C@@H](Cc1c[nH]c2ccccc12)C(=O)N[C@@H](CC(C)C)C(=O)N[C@H](C(=O)N[C@@H](CCCNC(=N)N)C(=O)N[C@@H](CCC(N)=O)C(=O)N[C@@H](CCCNC(=N)N)C(=O)N[C@@H](Cc1ccc(O)cc1)C(N)=O)[C@@H](C)O)C(C)C` [Compound 121, N{alpha-4}-(3-methylbutanoyl)-N{epsilon-7}-[2-(2-{2-[2-(2-{2-[(4S)-4-carboxy-4-(17-carboxyheptadecanamido)butanamido]ethoxy}ethoxy)acetamido]ethoxy}ethoxy)acetamido]-[4A,6A,7K,9E,10A,18Q,22V,28Y,30W,31L]hPYY (4-36)], 0.61 nM; that for `CC(C)CC(=O)N[C@@H](C)C(=O)N1CCC[C@H]1C(=O)N[C@@H](CCC(=O)O)C(=O)N[C@@H](CCCCNC(=O)COCCOCCNC(=O)COCCOCCNC(=O)CC[C@H](NC(=O)CCCCCCCCCCCCCCCCC(=O)O)C(=O)O)C(=O)N1CCC[C@H]1C(=O)N[C@@H](CCC(=O)O)C(=O)N[C@@H](CCC(=O)O)C(=O)N[C@@H](CC(=O)O)C(=O)N[C@@H](C)C(=O)N[C@@H](C)C(=O)N1CCC[C@H]1C(=O)N[C@@H](CCC(=O)O)C(=O)N[C@@H](CCC(=O)O)C(=O)N[C@@H](CC(C)C)C(=O)N[C@@H](CCC(N)=O)C(=O)N[C@@H](CCCNC(=N)N)C(=O)N[C@@H](Cc1ccc(O)cc1)C(=O)N[C@@H](Cc1ccc(O)cc1)C(=O)N[C@H](C(=O)N[C@@H](CO)C(=O)N[C@@H](CC(C)C)C(=O)N[C@@H](CCCNC(=N)N)C(=O)N[C@@H](Cc1c[nH]cn1)C(=O)N[C@@H](Cc1ccc(O)cc1)C(=O)N[C@@H](Cc1ccc(O)cc1)C(=O)N[C@@H](CC(N)=O)C(=O)N[C@@H](Cc1c[nH]c2ccccc12)C(=O)N[C@@H](CC(C)C)C(=O)N[C@H](C(=O)N[C@@H](CCCNC(=N)N)C(=O)N[C@@H](CCC(N)=O)C(=O)N[C@@H](CCCNC(=N)N)C(=O)N[C@@H](Cc1ccc(O)cc1)C(N)=O)[C@@H](C)O)C(C)C` [Compound 122, N{alpha-4}-(3-methylbutanoyl)-N{epsilon-7}-[2-(2-{2-[2-(2-{2-[(4S)-4-carboxy-4-(17-carboxyheptadecanamido)butanamido]ethoxy}ethoxy)acetamido]ethoxy}ethoxy)acetamido]-[4A,7K,9E,13A,18Q,22V,28Y,30W,31L]hPYY (4-36)], 1.84 nM. The value for `CC(C)CC(=O)N[C@@H](C)C(=O)N1CCC[C@H]1C(=O)N[C@@H](C)C(=O)N[C@@H](CCCCNC(=O)COCCOCCNC(=O)COCCOCCNC(=O)CC[C@H](NC(=O)CCCCCCCCCCCCCCCCC(=O)O)C(=O)O)C(=O)N1CCC[C@H]1C(=O)N[C@@H](CCC(=O)O)C(=O)N[C@@H](CCC(=O)O)C(=O)N[C@@H](CC(=O)O)C(=O)N[C@@H](CO)C(=O)N[C@@H](CO)C(=O)N1CCC[C@H]1C(=O)N[C@@H](CCC(=O)O)C(=O)N[C@@H](CCC(=O)O)C(=O)N[C@@H](CC(C)C)C(=O)N[C@@H](CCC(N)=O)C(=O)N[C@@H](CCCNC(=N)N)C(=O)N[C@@H](Cc1ccc(O)cc1)C(=O)N[C@@H](Cc1ccc(O)cc1)C(=O)N[C@H](C(=O)N[C@@H](CO)C(=O)N[C@@H](CC(C)C)C(=O)N[C@@H](CCCNC(=N)N)C(=O)N[C@@H](Cc1c[nH]cn1)C(=O)N[C@@H](Cc1ccc(O)cc1)C(=O)N[C@@H](Cc1ccc(O)cc1)C(=O)N[C@@H](CC(N)=O)C(=O)N[C@@H](Cc1c[nH]c2ccccc12)C(=O)N[C@@H](CC(C)C)C(=O)N[C@H](C(=O)N[C@@H](CCCNC(=N)N)C(=O)N[C@@H](CCC(N)=O)C(=O)N[C@@H](CCCNC(=N)N)C(=O)N[C@@H](Cc1ccc(O)cc1)C(N)=O)[C@@H](C)O)C(C)C` [Compound 126, N{alpha-4}-(3-methylbutanoyl)-N{epsilon-7}-[2-(2-{2-[2-(2-{2-[(4S)-4-carboxy-4-(17-carboxyheptadecanamido)butanamido]ethoxy}ethoxy)acetamido]ethoxy}ethoxy)acetamido]-[4A,6A,7K,9E,12S,18Q,22V,28Y,30W,31L]hPYY (4-36)] was 1.18 nM; that for `CC(C)CC(=O)N[C@@H](C)C(=O)N1CCC[C@H]1C(=O)N[C@@H](CCC(=O)O)C(=O)N[C@@H](CCCCNC(=O)COCCOCCNC(=O)COCCOCCNC(=O)CC[C@H](NC(=O)CCCCCCCCCCCCCCCCC(=O)O)C(=O)O)C(=O)N1CCC[C@H]1C(=O)N[C@@H](CCC(=O)O)C(=O)N[C@@H](CCC(=O)O)C(=O)N[C@@H](CC(=O)O)C(=O)N[C@H](C(=O)N[C@@H](CO)C(=O)N[C@@H](C)C(=O)N[C@@H](CCC(=O)O)C(=O)N[C@@H](CCC(=O)O)C(=O)N[C@@H](CC(C)C)C(=O)N[C@@H](CCC(N)=O)C(=O)N[C@@H](CCCNC(=N)N)C(=O)N[C@@H](Cc1ccc(O)cc1)C(=O)N[C@@H](Cc1ccc(O)cc1)C(=O)N[C@H](C(=O)N[C@@H](CO)C(=O)N[C@@H](CC(C)C)C(=O)N[C@@H](CCCNC(=N)N)C(=O)N[C@@H](Cc1c[nH]cn1)C(=O)N[C@@H](Cc1ccc(O)cc1)C(=O)N[C@@H](Cc1ccc(O)cc1)C(=O)N[C@@H](CC(N)=O)C(=O)N[C@@H](Cc1c[nH]c2ccccc12)C(=O)N[C@@H](CC(C)C)C(=O)N[C@H](C(=O)N[C@@H](CCCNC(=N)N)C(=O)N[C@@H](CCC(N)=O)C(=O)N[C@@H](CCCNC(=N)N)C(=O)N[C@@H](Cc1ccc(O)cc1)C(N)=O)[C@@H](C)O)C(C)C)[C@@H](C)O` [Compound 130, N{alpha-4}-(3-methylbutanoyl)-N{epsilon-7}-[2-(2-{2-[2-(2-{2-[(4S)-4-carboxy-4-(17-carboxyheptadecanamido)butanamido]ethoxy}ethoxy)acetamido]ethoxy}ethoxy)acetamido]-[4A,7K,9E,12T,14A, 18Q,22V,28Y,30W,31L]hPYY (4-36)] was 11.1 nM.
